# Measured values: US5409933A, “Quinoline derivatives and processes for preparing the same” (priority 1993, dated 1995)
# Structures can show the parent of a compound that is named as a salt. Where two headings read alike, the source gives them in different places.
# Key:
# [1] = system: Streptococcus faecium MD8b; assay: In Vitro Anti-Bacterial Activity Test (MIC, agar dilution); type: cell-based; conditions: Enterococcus faecium, Muller-Hinton agar, 37° C., 18 hours, read-out: MIC
# Summary of the method: (§1)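 Minimum inhibitory concentrations were determined by dilution of test compounds in Muller-Hinton agar, onto which 10^7 C.F.U./ml bacterial suspensions were inoculated and incubated at 37° C. for 18 hours.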
# [2] = system: Pseudomonas aeruginosa 1771M; assay: as above; type: cell-based; conditions: Pseudomonas aeruginosa, 1771M, 18 h, Muller-Hinton agar, 37° C.
# Summary of the method: as §1
# [3] = system: Pseudomonas aeruginosa 1771; assay: as above; type: cell-based; conditions: Pseudomonas aeruginosa 1771; Muller-Hinton agar, 37° C., 18 hours; read-out: MIC
# Summary of the method: as §1
# [4] = system: Klebsiella aerogenes 1522E; assay: as above; type: cell-based; conditions: Klebsiella aerogenes, 1522E, 18 h, Klebsiella aerogenes 1522E; Muller-Hinton agar, 37° C., 18 hours; read-out: MIC
# Summary of the method: as §1
# [5] = system: Enterobacter cloacae P99; assay: as above; type: cell-based; conditions: Enterobacter cloacae, P99, 18 h
# Summary of the method: (§2)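 Each strain, at 10^7 C.F.U./ml, was spotted onto Muller-Hinton agar carrying serial compound dilutions. Growth after an 18-hour incubation at 37° C. defined the minimum inhibitory concentration.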
# [6] = system: Escherichia coli DC2; assay: as above; type: cell-based; conditions: Escherichia coli, DC2, 18 h
# Summary of the method: as §1
# [7] = system: Staphylococcus aureus 285; assay: as above; type: cell-based; conditions: Staphylococcus aureus, 285, 18 h, Staphylococcus aureus 285; Muller-Hinton agar, 37° C., 18 hours; read-out: MIC
# Summary of the method: as §1
# [8] = system: Streptococcus pyogenes 77A; assay: as above; type: cell-based; conditions: Streptococcus pyogenes 77A; Muller-Hinton agar, 37° C., 18 hours; read-out: MIC
# Summary of the method: as §1
# [9] = system: Pseudomonas aeruginosa 9027; assay: as above; type: cell-based; conditions: Muller-Hinton agar, 37° C., 18 hours, read-out: MIC
# Summary of the method: as §1
# [10] = system: Enterobacter cloacae 1321E; assay: as above; type: cell-based
# Summary of the method: as §1
# [11] = system: Staphylococcus aureus SG511; assay: as above; type: cell-based; conditions: Staphylococcus aureus SG511; Muller-Hinton agar, 37° C., 18 hours; read-out: MIC
# Summary of the method: as §1
# [12] = system: Staphylococcus aureus 503; assay: as above; type: cell-based; conditions: Staphylococcus aureus 503; Muller-Hinton agar, 37° C., 18 hours; read-out: MIC
# Summary of the method: as §1
# [13] = system: Escherichia coli 078; assay: as above; type: cell-based; conditions: Escherichia coli 078; Muller-Hinton agar, 37° C., 18 hours; read-out: MIC
# Summary of the method: as §1
# [14] = system: Escherichia coli 1507E; assay: as above; type: cell-based; conditions: Muller-Hinton agar, 37° C.
# Summary of the method: as §1
# [15] = system: Pseudomonas aeruginosa 1592E; assay: as above; type: cell-based; conditions: Muller-Hinton agar, 37° C., 18 hours, read-out: MIC
# Summary of the method: as §1
# [16] = system: Salmonella typhimurium; assay: as above; type: cell-based; conditions: Salmonella enterica; Salmonella typhimurium; Muller-Hinton agar, 37° C., 18 hours; read-out: MIC
# Summary of the method: as §1
# [17] = system: Klebsiella oxytoca 1082E; assay: as above; type: cell-based; conditions: Klebsiella oxytoca 1082E; Muller-Hinton agar, 37° C., 18 hours; read-out: MIC
# Summary of the method: as §1
# [18] = system: Escherichia coli TEM; assay: as above; type: cell-based; conditions: Escherichia coli, 18 h, Muller-Hinton agar, 37° C.
# Summary of the method: as §2
# [19] = system: Streptococcus pyogenes 308A; assay: as above; type: cell-based; conditions: Muller-Hinton agar, 37° C., 18 hours, read-out: MIC
# Summary of the method: as §1
# [20] = system: Escherichia coli DC0; assay: as above; type: cell-based; conditions: Muller-Hinton agar, 37° C., 18 hours, read-out: MIC
# Summary of the method: as §1
# [21] = Acute Toxicity Test; conditions: mouse, in vivo, ICR mice, 14th day
# Description: Test compounds were administered to ICR mice weighing 20 to 25 g. On 14th day, LD50 was calculated from the number of survived mice by the probit analysis.
# [22] = system: S. aureus 17740; assay: Treatment Effect on the Systemic Infection; type: in vivo, NMRI mice; conditions: Staphylococcus aureus, in Mus musculus, 240 h, S. aureus 17740, immediately and 4 hours after infection, survival on 10th day
# Description: (§3) 10 fold of the pathogens which lead to 100% lethality were injected intraperitoneally to male and female NMRI mice weighing 18 to 20 g. Immediately and 4 hours after injection, the dose of test compounds, which was determined by two-fold serial dilution method, was administered orally or subcutaneously to the mice, and on the 10th day, the effect was evaluated in terms of ED50 calculated from the number of survived mice by the probit analysis.
# [23] = system: P. mirabilis; assay: Treatment Effect on the Systemic Infection; type: in vivo, NMRI mice; conditions: Proteus mirabilis, in Mus musculus, 240 h, P. mirabilis, immediately and 4 hours after infection, survival on 10th day
# Description: as §3
# [24] = ip, read-out: Acute Toxicity LD50, Peritomeo Injection
# [25] = oral, read-out: Acute Toxicity LD50, Oral Administration
# [26] = oral, read-out: ED50 Oral Administration
# [27] = sc, subcutaneous, read-out: ED50 Subcutaneous Injection
Compound,MIC [1] [µg/mL],MIC [2] [µg/mL],MIC [3] [µg/mL],MIC [4] [µg/mL],MIC [5] [µg/mL],MIC [6] [µg/mL],MIC [7] [µg/mL],MIC [8] [µg/mL],MIC [9] [µg/mL],MIC [11] [µg/mL],MIC [12] [µg/mL],MIC [13] [µg/mL],MIC [15] [µg/mL],MIC [16] [µg/mL],MIC [17] [µg/mL],MIC [18] [µg/mL],MIC [19] [µg/mL],MIC [20] [µg/mL],"LD50 at 336 h [21, 24] [mg/kg]","LD50 at 336 h [21, 25] [mg/kg]",further results
"CNCC1=CCN(c2c(F)cc3c(=O)c(C(=O)C[N+](=O)[O-])cn(C4CC4)c3c2Cl)C1 [Example 16, 1-cyclopropyl-6-fluoro-8-chloro-7-(3-methylaminomethyl-2,5-dihydropyrrol-1-yl)-3-(2-nitroacetyl)-1,4-dihydro-4-oxoquinoline hydrochloride]",0.013,0.195,0.391,0.013,0.007,0.013,0.004,0.025,0.781,0.004,< 0.002,0.004,0.781,< 0.02,0.007,0.004,0.098,0.098,605,3800,"MIC ([10]; Enterobacter cloacae, 1321E, 18 h): 0.007 µg/mL; MIC ([14]; Escherichia coli, 1507E, 18 h): 0.013 µg/mL; ED50 [22, 26]: 49.7 mg/kg; ED50 [22, 27]: 97.6 mg/kg"
"N[C@H]1CCN(c2c(F)cc3c(=O)c(C(=O)C[N+](=O)[O-])cn(C4CC4)c3c2Cl)C1 [Example 13, 1-cyclopropyl-6-fluoro-8-chloro-7-(3-3S-aminopyrrolidin-1-yl)-3-(2-nitroacetyl)-1,4-dihydro-4-oxoquinoline hydrochloride]",0.195,0.049,0.195,0.013,0.004,0.013,0.025,0.195,0.195,0.025,0.049,< 0.002,0.195,< 0.002,< 0.002,< 0.002,0.195,0.049,580,3800,"MIC ([10]; Enterobacter cloacae 1321E, Muller-Hinton agar, 37° C., 18 hours, read-out: MIC): < 0.002 µg/mL; MIC ([14]; 18 hours, read-out: MIC): 0.004 µg/mL; ED50 [23, 26]: 0.21 mg/kg; ED50 [23, 27]: 0.08 mg/kg; ED50 [22, 26]: 128 mg/kg; ED50 [22, 27]: 16.8 mg/kg"
